Reference: patent US11498909B2, “Compound acting as antibiotics” (KBP BIOSCIENCES CO., LTD., priority 2018, dated 2022)
Values after ≈ are worked out from the molar mass of the structure shown. Where two headings read alike, the source gives them in different places.

Legend:
[1] = system: polymyxin-resistant mcr-1 positive Enterobacteriaceae; test: In vitro antibacterial effect on polymyxin-resistant mcr-1 positive Enterobacteriaceae, agar dilution MIC (Experiment 2); assay type: cell-based, Escherichia coli; conditions: for MIC50 / MIC90: Escherichia coli; for MIC50: read-out: MIC50 Value, polymyxin-resistant mcr-1 positive Escherichia coli, agar dilution; for MIC90: read-out: MIC90 Value, polymyxin-resistant mcr-1 positive Escherichia coli, agar dilution
Method: Tested samples: the compounds of the present invention, prepared according to the methods of the preparation examples;
Polymyxin E sulphate, Ampicillin, Cefotaxime, Gentamicin, Ciprofloxacin, Tetracycline, and Bactrim were all commercial products, the following experiments were carried out according to the content of an effective ingredient in each commercial product.
Tested strains: Escherichia coli carrying mcr-1 gene isolated from animals and Escherichia coli ATCC25922, a quality control strain, were provided by South China Agricultural University.
With reference to the agar dilution method in CLSI, the MIC value of the tested drugs to the polymyxin resistant mcr-1 positive Escherichia coli were determined.
Preparation of drug-containing agar plates: a drug solution with the highest concentration was prepared for each compound; the drug solution with the highest concentration was subjected to the double dilution; for each of dilution gradient, 1 mL (20×drug working solution) of the drug solution was added to 19 mL MH agar at 45-50° C.; immediately after addition, the agar and the drug solution were uniformly mixed to give a drug-containing agar plate with final concentrations of […], and the plate was solidified for later use; and in the meanwhile, a growth control group was arranged.
Inoculum preparation and culture: the strains stored at −80° C. were rejuvenated and formulated with broth so that the turbidity reached or exceeded 0.5 #McFarland unit; a 96-well plate was used as the inoculation tank, and the bacterial solution was diluted with sodium chloride injection so that the content of bacteria inoculated on the agar was 10^4 CFU/point. A multi-point inoculation instrument was used to inoculate the bacterial solution to the surface of the labeled drug-containing agar. After the water in the inoculation point was completely absorbed by the agar, the plate was placed upside down in a 37° C. constant-temperature incubator and incubated for 16-20 hours.

Escherichia coli = test: In vitro antibacterial activity, agar dilution MIC (Experiment 1); assay type: cell-based
Method: (§1) Tested strains: all the clinically separated strains below were purchased from public facilities.
(§2) Escherichia coli ATCC25922, Pseudomonas aeruginosa ATCC27853, Klebsiella pneumoniae ATCC700603, and the like.
(§3) Tested Samples: Imipenem, Ceftazidime: Commercial Products, the Following Experiments were Carried Out According to the Content of an Effective Ingredient in Each Commercial Product;
(§4) The compounds of the present invention, their chemical names, and preparation methods are shown in the preparation example of each compound.
(§5) Experiment method: Agar dilution method, refer to National Committee for Clinical Laboratory Standards. 2006. Methods for Dilution Antimicrobial Susceptibility Tests for Bacteria That Grow Aerobically; Approved Standard—Seventh Edition M7-A7, Vol 26, No. 2, 2006, to determine the MIC of the compound. MIC represents the minimum inhibitory concentration.

Klebsiella pneumoniae = test: as above; assay type: cell-based
Method: as §1, §2, §3, §4, §5

Pseudomonas aeruginosa = test: as above; assay type: cell-based
Method: as §1, §2, §3, §4, §5

[2] = Pharmacokinetics (PK) determination in SD rats (Experiment 4); assay type: in vivo; conditions: plasma; for AUC(0-t) / AUC(0-inf): Sprague-Dawley (SD), rat, iv, 2 mg/kg; for AUC(0-inf): read-out: AUCINF_obs
Method: The compound of the present invention, self-prepared and dissolved in a suitable solvent.
Instrument and equipment: API4000 LC-MS/MS
Chromatographic column: Waters XBridge C18(2.1×50 mm, […])
Rat blood collection: Animals were fixed. The animal's tail was heated with a water bathtub 10 minutes before each time point. About 200 μL of the blood was collected through the caudal vein. After the blood collection, the blood was placed in an anticoagulation tube containing heparin sodium. The blood samples were centrifuged at 8000 rpm for 6 minutes at 4° C. to obtain plasma samples. The plasma must be prepared within 30 minutes after the blood collection. The plasma was stored in a refrigerator at −80° C. before the test.
(1) Test samples were removed from the refrigerator (−80° C.), naturally thawed at room temperature, and then vortexed for 5 minutes;
(2) 20 μL sample was precisely pipetted to a 1.5 mL centrifuge tube;
(3) 200 μL of the internal standard solution was added;
(4) The mixture was vortexed for 5 minutes and centrifuged for 5 minutes (12000 revolutions per minute);
(5) 100 μL of the supernate was precisely pipetted, 100 μL of water was added, the mixture was vortexed for 5 minutes, and the sample was sent to LC-MS/MS for analysis.
The results of the concentrations of the test samples (plasma samples) were output with Analyst 1.6.1 of AB Corporation. The meaning value, the standard deviation, the coefficient of variation, and other parameters (not necessary to calculate the parameter that can be directly output from Analyst 1.6.1) were calculated with Microsoft Excel, and the PK parameter is calculated with Pharsight Phoenix 6.1 software.

[3] = agar dilution (Table 3), read-out: MIC90
[4] = agar dilution (Table 3), read-out: MIC50

Row | MIC90 (Pseudomonas aeruginosa; [3]) | MIC50 (Pseudomonas aeruginosa; [4]) | Structure (SMILES) | MIC50 [1] | MIC90 [1] | Cl_obs ([2]; IV 2 mg/kg) | Vz_obs ([2]; IV 2 mg/kg) | t1/2z ([2]; IV 2 mg/kg) | λ_z ([2]; IV 2 mg/kg) | AUC(0-t) [2] | AUC(0-inf) [2] | other results
1 | – | – | CC1(C)S[C@@H]2[C@H](NC(=O)[C@H](N)c3ccccc3)C(=O)N2[C@H]1C(=O)O [Ampicillin] | > 128 µg/mL | > 128 µg/mL | – | – | – | – | – | – | –
2 | – | – | CO/N=C(\C(=O)N[C@@H]1C(=O)N2C(C(=O)O)=C(COC(C)=O)CS[C@H]12)c1csc(N)n1 [Cefotaxime] | 2 µg/mL (≈ 4.39 µM) | 128 µg/mL (≈ 281 µM) | – | – | – | – | – | – | –
3 | – | – | O=C(O)c1cn(C2CC2)c2cc(N3CCNCC3)c(F)cc2c1=O [Ciprofloxacin] | 4 µg/mL (≈ 12.1 µM) | 32 µg/mL (≈ 96.6 µM) | – | – | – | – | – | – | –
4 | – | – | C[C@@H](O)[C@H](NC(=O)c1ccc(C#CC#Cc2ccc(CN(C)C)o2)cc1)C(=O)NO [Compound 4, 4-((5-((dimethylamino)methyl)furan-2-yl)buta-1,3-diynyl)-N-((2S,3R)-3-hydroxy-1-(hydroxyamino)-1-oxobutan-2-yl)benzamide] | – | – | 80 ± 1.83 mL/min/kg | 1.74 ± 0.81 L/kg | 15 ± 7.2 min | 3.16 ± 1.28 h⁻¹ | 414 ± 10.3 ng·h/mL | 417 ± 9.68 ng·h/mL | MIC50 (Escherichia coli): 0.25 µg/mL (≈ 0.611 µM); MIC90 (Escherichia coli): 0.25 µg/mL (≈ 0.611 µM); MIC50 (Klebsiella pneumoniae): 1 µg/mL (≈ 2.44 µM); MIC90 (Klebsiella pneumoniae): 2 µg/mL (≈ 4.88 µM); MIC50 (Pseudomonas aeruginosa): 1 µg/mL (≈ 2.44 µM); MIC90 (Pseudomonas aeruginosa): 4 µg/mL (≈ 9.77 µM)
5 | 8 µg/mL (≈ 19 µM) | 1 µg/mL (≈ 2.37 µM) | C[C@@H](O)[C@H](NC(=O)c1ccc(C#CC#Cc2ccc(CNC3CC3)o2)cc1)C(=O)NO [Compound 11, 4-((5-((cyclopropylamino)methyl)furan-2-yl)buta-1,3-diynyl)-N-((2S,3R)-3-hydroxy-1-(hydroxamino)-1-oxobutan-2-yl)benzamide] | – | – | – | – | – | – | – | – | MIC50 (Escherichia coli; agar dilution, read-out: MIC50): 0.125 µg/mL (≈ 0.297 µM); MIC90 (Escherichia coli; agar dilution, read-out: MIC90): 0.25 µg/mL (≈ 0.593 µM); MIC50 (Klebsiella pneumoniae; agar dilution, read-out: MIC50): 0.5 µg/mL (≈ 1.19 µM); MIC90 (Klebsiella pneumoniae; agar dilution, read-out: MIC90): 2 µg/mL (≈ 4.75 µM)
6 | 4 µg/mL (≈ 8.52 µM) | 1 µg/mL (≈ 2.13 µM) | C[C@@H](O)[C@H](NC(=O)c1ccc(C#CC#Cc2ccc(CNCCOCCO)o2)cc1)C(=O)NO [Compound 18, N-((2S,3R)-3-hydroxy-1-(hydroxyamino)-1-oxobutan-2-yl)-4-((5-((2-(2-hydroxyethoxy)ethylamino)methyl)furan-2-yl)buta-1,3-diynyl)benzamide] | – | – | – | – | – | – | – | – | MIC50 (Klebsiella pneumoniae; agar dilution, read-out: MIC50): 2 µg/mL (≈ 4.26 µM); MIC90 (Klebsiella pneumoniae; agar dilution, read-out: MIC90): 2 µg/mL (≈ 4.26 µM)
7 | – | – | C[C@@H](O)[C@H](NC(=O)c1ccc(C#CC#Cc2ccco2)cc1)C(=O)NO [Compound 20] | – | – | 107 ± 16 mL/min/kg | 3.77 ± 0.53 L/kg | 24.6 ± 0.6 min | 1.70 ± 0.03 h⁻¹ | – | – | MIC50 (Pseudomonas aeruginosa; agar dilution (Table 3)): 0.25 µg/mL (≈ 0.71 µM); MIC90 (Pseudomonas aeruginosa; agar dilution (Table 3)): 1 µg/mL (≈ 2.84 µM); AUCINF_obs ([2]; IV 2 mg/kg): 791 ± 117 ng·h/mL; AUClast ([2]; IV 2 mg/kg): 778 ± 116 ng·h/mL
8 | 4 µg/mL (≈ 8.5 µM) | 1 µg/mL (≈ 2.13 µM) | C[C@@H](O)[C@H](NC(=O)c1ccc(C#CC#Cc2ccc(COCCOCCO)o2)cc1)C(=O)NO [Compound 21, N-((2S,3R)-3-hydroxy-1-(hydroxyamino)-1-oxobutan-2-yl)-4-((5-((2-(2-hydroxyethoxy)ethoxy)methyl)furan-2-yl)buta-1,3-diynyl)benzamide] | – | – | 24.2 ± 4.83 mL/min/kg | 0.33 ± 0.07 L/kg | 9.6 ± 0.6 min | 4.38 ± 0.25 h⁻¹ | 1400 ± 256 ng·h/mL | 1420 ± 255 ng·h/mL | –

Row | Structure (SMILES) | MIC90 (Pseudomonas aeruginosa; [3]) | MIC50 (Pseudomonas aeruginosa; [4]) | MIC50 [1] | MIC90 [1] | Cl_obs ([2]; IV 2 mg/kg) | Vz_obs ([2]; IV 2 mg/kg) | t1/2z ([2]; IV 2 mg/kg) | λ_z ([2]; IV 2 mg/kg) | AUC(0-t) [2] | AUC(0-inf) [2] | other results
9 | CNC(=O)C(C(=O)NO)N(C)C(=O)c1ccc(C#CC#Cc2ccc(CO)o2)cc1 (centres unmarked) [Compound 5, N-methyl-N-(3-methylamino-1-(hydroxyamino)-1,3-dioxopropan-2-yl)-4-((5-(hydroxymethyl)furan-2-yl)buta-1,3-diynyl)benzamide] | 1 µg/mL (≈ 2.44 µM) | – | – | 0.5 µg/mL (≈ 1.22 µM) | 10.3 ± 1.3 mL/min/kg | 0.63 ± 0.02 L/kg | 42.6 ± 6.6 min | 0.99 ± 0.15 h⁻¹ | 8110 ± 1050 ng·h/mL | 8150 ± 1040 ng·h/mL | MIC50 (Escherichia coli; agar dilution, read-out: MIC50): 2 µg/mL (≈ 4.89 µM); MIC90 (Escherichia coli; agar dilution, read-out: MIC90): 4 µg/mL (≈ 9.77 µM); MIC50 (Pseudomonas aeruginosa): 0.125 µg/mL (≈ 0.305 µM); MIC90 Value ([1]; polymyxin-resistant mcr-1 positive Escherichia coli, agar dilution): 1 µg/mL (≈ 2.44 µM)
